Assays:
[1] = biological target: T1, Solute carrier family 22 member 1 (Rattus norvegicus, UniProt Q63089); assay: TP_TRANSPORTER: inhibition of TEA uptake (TEA: 500 uM, PAH: 5000 uM) in OCT1A expressing Xenopus laevis oocytes; format: functional, cell-based; details: oocyte
T1 sequence (Q63089 whole entry): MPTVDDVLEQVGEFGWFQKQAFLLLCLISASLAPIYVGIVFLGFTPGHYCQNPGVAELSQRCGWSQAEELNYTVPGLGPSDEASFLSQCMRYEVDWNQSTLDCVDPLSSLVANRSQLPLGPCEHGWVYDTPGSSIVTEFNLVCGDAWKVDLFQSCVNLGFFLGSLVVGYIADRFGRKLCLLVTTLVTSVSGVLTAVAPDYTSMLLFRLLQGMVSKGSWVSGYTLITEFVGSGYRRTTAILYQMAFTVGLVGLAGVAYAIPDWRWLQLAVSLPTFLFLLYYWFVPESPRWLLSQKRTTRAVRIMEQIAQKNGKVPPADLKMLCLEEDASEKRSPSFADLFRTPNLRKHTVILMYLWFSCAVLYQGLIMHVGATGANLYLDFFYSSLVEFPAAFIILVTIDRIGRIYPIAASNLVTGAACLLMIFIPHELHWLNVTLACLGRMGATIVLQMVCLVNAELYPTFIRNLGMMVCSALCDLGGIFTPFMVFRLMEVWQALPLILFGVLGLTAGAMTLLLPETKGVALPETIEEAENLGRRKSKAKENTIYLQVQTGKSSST

[2] = biological target: T1, Solute carrier family 22 member 1; assay: TP_TRANSPORTER: inhibition of TEA uptake (TEA: 500 uM, Procainamide: 5000 uM) in OCT1A expressing Xenopus laevis oocytes; format: functional, cell-based; details: oocyte
[3] = biological target: T1, Solute carrier family 22 member 1; assay: TP_TRANSPORTER: inhibition of TEA uptake (basolateral to cell) (TEA: 500 uM, NMN: 5000 uM) in OCT1A expressing Xenopus laevis oocytes; format: functional, cell-based; details: oocyte
[4] = biological target: T1, Solute carrier family 22 member 1; assay: TP_TRANSPORTER: inhibition of TEA uptake (TEA: 500 uM, Guanidine: 5000 uM) in OCT1A expressing Xenopus laevis oocytes; format: functional, cell-based; details: oocyte
[5] = substrate: CC[N+](CC)(CC)CC; assay: cells, lysate or membranes named

## Nc1ccc(C(=O)NCC(=O)O)cc1 [AMINOHIPPURIC ACID]
[1]
  Activity: inhibitor [+]

## CCN(CC)CCNC(=O)c1ccc(N)cc1 [PROCAINAMIDE]
[2]
  Activity: inhibitor [+]

## CNC(=O)c1cccnc1 [NICOTINYL METHYLAMIDE]
[3]
  Activity: inhibitor [+]

## N=C(N)N [GUANIDINE]
[4]
  Activity: inhibitor [+]

B1: Solute carrier family 22 member 1 (Rattus norvegicus) (protein)
chain: T1 sequence (Q63089 whole entry)
[5]
  Km: 42 µM
